According to patent publication US6830765B2, “Green tea extract for treating obesity” (priority 1999, dated 2004):

Legend:
[1] = test system: rat brown adipose tissue; assay: Ex vivo model of thermogenesis: oxygen consumption of a sample of rat brown adipose tissue; format: cell-based
Description: These studies were carried out on an ex vivo pharmacological model of thermogenesis. The principle is to measure the oxygen consumption of a sample of rat brown adipose tissue; the oxygen consumption is proportional to the thermogenesis induced in the adipose tissue by the various test substances.

[2] = test system: thermogenesis; assay: Increase in thermogenesis in man (total expenditure of energy over 24 h, 10 volunteers); format: in vivo
Description: The increase in thermogenesis in man by an extract of green tea according to the invention was also determined. A similar study was carried out on 10 volunteers receiving at each meal either 500 mg of an extract of green tea (corresponding to 125 mg of catechols and 50 mg of caffeine), or 50 mg of caffeine, or a placebo.

SMILES	Increase in oxygen consumption ([1]; Caffeine 0, EGCG 100 μM)	Increase in oxygen consumption ([1]; Caffeine 0, EGCG 200 μM)	total expenditure of energy over 24 h ([2]; 50 mg of caffeine at each meal, placebo 9538 kJ) [kJ]	effect on thermogenesis, result in words ([2]; caffeine alone at the same dose as provided by the extract)	Increase in oxygen consumption ([1]; Caffeine 100 μM, EGCG 0)
O=C(O[C@@H]1Cc2c(O)cc(O)cc2O[C@@H]1c1cc(O)c(O)c(O)c1)c1cc(O)c(O)c(O)c1 [EGCG, epigallocatechol gallate]	no	+40%	–	–	–
Cn1c(=O)c2c(ncn2C)n(C)c1=O [caffeine]	–	–	9599	does not increase thermogenesis	no
